Assay results taken from patent publication US20090099140A1, “20-Alkyl, Gemini Vitamin D3 Compounds and Methods of Use Thereof” (BioXell S.p.A., priority 2005, published 2009).
Where two headings read alike, the source gives them in different places.

Legend:
[1] = Determination of maximum tolerated dose (MTD), highest oral dose without hypercalcemia (serum calcium); format: in vivo; conditions: in vivo, po
Method: The maximum tolerated dose of the vitamin D3 compounds of the invention were determined in eight week-old female C57BL/6 mice (3 mice/group) dosed orally (0.1 ml/mouse) with various concentrations of Vitamin D3 analogs daily for four days. Analogs were formulated in miglyol for a final concentration of 10, 30, 100 and 300 μg/kg when given at 0.1 ml/mouse p.o. daily. Blood for serum calcium assay was drawn by tail bleed on day five, the final day of the study. Serum calcium levels were determined using a colorimetric assay (Sigma Diagnostics, procedure no. 597). The highest dose of analog tolerated without inducing hypercalcemia (serum calcium >10.7 mg/dl) was taken as the maximum tolerated does (MTD).

[2] = tested on: IFN-γ production; experiment: IFN-γ production by allogeneic T cell activation in the mixed leukocyte response (MLR); format: cell-based; conditions: MLR of allogeneic PBMC from 2 different donors, 5 days, IFN-γ by ELISA, 50% inhibition of IFN-γ production
Method: Immature dendritic cells (DC) were prepared as described in Romani, N. et al., J. Immunol. Meth. 196:137. IFN-γ production by allogeneic T cell activation in the mixed leukocyte response (MLR) was determined as described in Penna, G., et al., J. Immunol., 164: 2405-2411 (2000).
Briefly, peripheral blood mononuclear cells (PBMC) were separated from buffy coats by Ficoll gradient and the same number (3×105) of allogeneic PBMC from 2 different donors were co-cultured in 96-well flat-bottom plates. After 5 days, IFN-γ production in the MLR assay was measured by ELISA and the results expressed as amount (nM) of test compound required to induce 50% inhibition of IFN-γ production (IC50) (Table 1).

[3] = mouse, eight week-old female C57BL/6 mice, p.o. daily for four days in miglyol, highest dose without hypercalcemia (serum calcium >10.7 mg/dl) on day five, read-out: MTD (mice)

Row | Compound | MTD at 4 days [1, 3] [µg/kg] | IC50 ([2]; 120 h) [nM] | also measured
1 | [2H]C([2H])([2H])C(O)(CCC[C@](C)(CC#CC(O)(C(F)(F)F)C(F)(F)F)[C@H]1CCC2/C(=C/C=C3/C[C@@H](O)C[C@H](O)C3=C)CCC[C@@]21C)C([2H])([2H])[2H] (stereo partly drawn) [Compound 31, 1,25-Dihydroxy-20R-20-(4-hydroxy-5,5,5-trideutero-4-trideuteromethyl-pentyl)-23-yne-26,27-hexafluorocholecalciferol] | 0.3 | – | –
2 | [2H]C([2H])([2H])C(O)(CCC[C@](C)(C/C=C/C(O)(C(F)(F)F)C(F)(F)F)[C@H]1CCC2/C(=C/C=C3/C[C@@H](O)C[C@H](F)C3=C)CCC[C@@]21C)C([2H])([2H])[2H] (stereo partly drawn) [Compound 30, 1α-Fluoro-25-hydroxy-20R-20-(4-hydroxy-5,5,5-trideutero-4-trideuteromethyl-pentyl)-23E-ene-26,27-hexafluorocholecalciferol] | – | 0.012 | –
3 | C=C1/C(=C\C=C2/CCC[C@@]3(C)C2CC[C@@H]3[C@](C)(C/C=C\C(O)(C(F)(F)F)C(F)(F)F)CCCC(C)(C)O)CC(O)C[C@@H]1F (stereo partly drawn) [Compound 14, (20S)-1α-Fluoro-25-hydroxy-20-[(2Z)-5,5,5-trifluoro-4-hydroxy-4-trifluoromethyl-pent-2-enyl]-cholecalciferol] | 100 | 1.01 | –
4 | [2H]C([2H])([2H])C(O)(CCCC(C)(C/C=C/C(O)(C(F)(F)F)C(F)(F)F)[C@H]1CCC2/C(=C/C=C3/C[C@@H](O)C[C@H](O)C3=C)CCC[C@@]21C)C([2H])([2H])[2H] (stereo partly drawn) [Compound 19, 1,25-Dihydroxy-20S-20-(4-hydroxy-5,5,5-trideutero-4-trideuteromethyl-pentyl)-23E-ene-26,27-hexafluorocholecalciferol] | 0.1 | – | –
5 | [2H]C([2H])([2H])C(O)(CCC[C@](C)(C/C=C\C(O)(C(F)(F)F)C(F)(F)F)[C@H]1CCC2/C(=C/C=C3/C[C@@H](O)C[C@H](O)C3=C)CCC[C@@]21C)C([2H])([2H])[2H] (stereo partly drawn) [Compound 25, 1,25-Dihydroxy-20R-20-(4-hydroxy-5,5,5-trideutero-4-trideuteromethyl-pentyl)-23Z-ene-26,27-hexafluorocholecalciferol] | 3 | 0.001 | –
6 | [2H]C([2H])([2H])C(O)(CCC[C@](C)(CC#CC(O)(C(F)(F)F)C(F)(F)F)[C@H]1CCC2/C(=C/C=C3C[C@@H](O)C[C@H](O)C3)CCC[C@@]21C)C([2H])([2H])[2H] (stereo partly drawn) [Compound 32, 1,25-Dihydroxy-20R-20-(4-hydroxy-5,5,5-trideutero-4-trideuteromethyl-pentyl)-23-yne-26,27-hexafluoro-19-nor-cholecalciferol] | 0.3 | – | –
7 | [2H]C([2H])([2H])C(O)(CCC[C@@](C)(C/C=C\C(O)(C(F)(F)F)C(F)(F)F)[C@H]1CCC2/C(=C/C=C3/C[C@@H](O)C[C@H](O)C3=C)CCC[C@@]21C)C([2H])([2H])[2H] (stereo partly drawn) [Compound 16, 1,25-Dihydroxy-20S-20-(4-hydroxy-5,5,5-trideutero-4-trideuteromethyl-pentyl)-23Z-ene-26,27-hexafluorocholecalciferol] | 0.3 | 0.0111 | –
8 | [2H]C([2H])([2H])C(O)(CCC[C@](C)(C/C=C/C(O)(C(F)(F)F)C(F)(F)F)[C@H]1CCC2/C(=C/C=C3/C[C@@H](O)C[C@H](O)C3=C)CCC[C@@]21C)C([2H])([2H])[2H] (stereo partly drawn) [Compound 28, 1,25-Dihydroxy-20R-20-(4-hydroxy-5,5,5-trideutero-4-trideuteromethyl-pentyl)-23E-ene-26,27-hexafluorocholecalciferol] | 0.3 | – | –
9 | C=C1/C(=C\C=C2/CCC[C@@]3(C)C2CC[C@@H]3C(C)(CCCC(C)(C)O)CCCC(C)(C)O)CC(O)C[C@@H]1F (stereo partly drawn) [Compound 3, 1α-Fluoro-25-hydroxy-20-(4-hydroxy-4-methyl-pentyl)-cholecalciferol] | – | 6.27 | MTD at 4 days ([1]; female, C57BL/6, mouse): > 300 µg/kg
10 | CC(C)(O)CCCC(C)(CCCC(C)(C)O)[C@H]1CCC2/C(=C/C=C3/CC(O)C[C@H](O)C3)CCC[C@@]21C (stereo partly drawn) [Compound 2, 1,25-Dihydroxy-20-(4-hydroxy-4-methyl-pentyl)-19-nor-cholecalciferol] | < 30 | 0.744 | –
11 | C=C1/C(=C\C=C2/CCC[C@@]3(C)C2CC[C@@H]3[C@](C)(C/C=C/C(O)(C(F)(F)F)C(F)(F)F)CCCC(C)(C)O)CC(O)C[C@@H]1F (stereo partly drawn) [Compound 15, (20S)-1α-Fluoro-25-hydroxy-20-[(2E)-5,5,5-trifluoro-4-hydroxy-4-trifluoromethyl-pent-2-enyl]-cholecalciferol] | 10 | 0.119 | –
12 | [2H]C([2H])([2H])C(O)(CCC[C@](C)(C/C=C/C(O)(C(F)(F)F)C(F)(F)F)[C@H]1CCC2/C(=C/C=C3C[C@@H](O)C[C@H](O)C3)CCC[C@@]21C)C([2H])([2H])[2H] (stereo partly drawn) [Compound 29, 1,25-Dihydroxy-20R-20-(4-hydroxy-5,5,5-trideutero-4-trideuteromethyl-pentyl)-23E-ene-26,27-hexafluoro-19-nor-cholecalciferol] | 0.1 | – | –
13 | C=C1/C(=C\C=C2/CCC[C@@]3(C)C2CC[C@@H]3C(C)(CCCC(C)(C)O)CCCC(C)(C)O)CC(O)C[C@@H]1O (stereo partly drawn) [Compound 1, 1,25-Dihydroxy-20-(4-hydroxy-4-methyl-pentyl)cholecalciferol] | 3 | 0.518 | –
14 | [2H]C([2H])([2H])C(O)(CCCC(C)(CC#CC(O)(C(F)(F)F)C(F)(F)F)[C@H]1CCC2/C(=C/C=C3/C[C@@H](O)C[C@H](O)C3=C)CCC[C@@]21C)C([2H])([2H])[2H] (stereo partly drawn) [Compound 22, 1,25-Dihydroxy-20S-20-(4-hydroxy-5,5,5-trideutero-4-trideuteromethyl-pentyl)-23-yne-26,27-hexafluorocholecalciferol] | 0.3 | – | –
15 | [2H]C([2H])([2H])C(O)(CCC[C@@](C)(CC#CC(O)(C(F)(F)F)C(F)(F)F)[C@H]1CCC2/C(=C/C=C3/C[C@@H](O)C[C@H](F)C3=C)CCC[C@@]21C)C([2H])([2H])[2H] (stereo partly drawn) [Compound 24, 1α-Fluoro-25-hydroxy-20S-20-(4-hydroxy-5,5,5-trideutero-4-trideuteromethyl-pentyl)-23-yne-26,27-hexafluorocholecalciferol] | 10 | 0.0213 | –
16 | [2H]C([2H])([2H])C(O)(CCC[C@](C)(C/C=C\C(O)(C(F)(F)F)C(F)(F)F)[C@H]1CCC2/C(=C/C=C3/C[C@@H](O)C[C@H](F)C3=C)CCC[C@@]21C)C([2H])([2H])[2H] (stereo partly drawn) [Compound 27, 1α-Fluoro-25-hydroxy-20R-20-(4-hydroxy-5,5,5-trideutero-4-trideuteromethyl-pentyl)-23Z-ene-26,27-hexafluorocholecalciferol] | – | 0.307 | –
17 | C=C1/C(=C\C=C2/CCC[C@@]3(C)C2CC[C@@H]3[C@@](C)(CC#CC(O)(C(F)(F)F)C(F)(F)F)CCCC(C)(C)O)C[C@@H](O)C[C@@H]1O (stereo partly drawn) [Compound 7, (20R)-1,25-Dihydroxy-20-(5,5,5-trifluoro-4-hydroxy-4-trifluoromethyl-pent-2-ynyl)-cholecalciferol] | – | 0.038 | –
18 | (20S)-1,25-Dihydroxy-20-[(2E)-5,5,5-trifluoro-4-hydroxy-4-trifluoromethyl-pent-2-enyl]-cholecalciferol [Compound 6] | – | – | IC50 [2]: 0.044 nM
19 | [2H]C([2H])([2H])C(O)(CCCC(C)(CC#CC(O)(C(F)(F)F)C(F)(F)F)[C@H]1CCC2/C(=C/C=C3C[C@@H](O)C[C@H](O)C3)CCC[C@@]21C)C([2H])([2H])[2H] (stereo partly drawn) [Compound 23, 1,25-Dihydroxy-20S-20-(4-hydroxy-5,5,5-trideutero-4-trideuteromethyl-pentyl)-23-yne-26,27-hexafluoro-19-nor-cholecalciferol] | 1 | – | –
20 | [2H]C([2H])([2H])C(O)(CCC[C@](C)(C/C=C\C(O)(C(F)(F)F)C(F)(F)F)[C@H]1CCC2/C(=C/C=C3C[C@@H](O)C[C@H](O)C3)CCC[C@@]21C)C([2H])([2H])[2H] (stereo partly drawn) [Compound 26, 1,25-Dihydroxy-20R-20-(4-hydroxy-5,5,5-trideutero-4-trideuteromethyl-pentyl)-23Z-ene-26,27-hexafluoro-19-nor-cholecalciferol] | 0.3 | – | –
21 | [2H]C([2H])([2H])C(O)(CCC[C@](C)(CC#CC(O)(C(F)(F)F)C(F)(F)F)[C@H]1CCC2/C(=C/C=C3/C[C@@H](O)C[C@H](F)C3=C)CCC[C@@]21C)C([2H])([2H])[2H] (stereo partly drawn) [Compound 33, 1α-Fluoro-25-hydroxy-20R-20-(4-hydroxy-5,5,5-trideutero-4-trideuteromethyl-pentyl)-23-yne-26,27-hexafluorocholecalciferol] | – | 0.0132 | –
22 | [2H]C([2H])([2H])C(O)(CCCC(C)(C/C=C/C(O)(C(F)(F)F)C(F)(F)F)[C@H]1CCC2/C(=C/C=C3C[C@@H](O)C[C@H](O)C3)CCC[C@@]21C)C([2H])([2H])[2H] (stereo partly drawn) [Compound 20, 1,25-Dihydroxy-20S-20-(4-hydroxy-5,5,5-trideutero-4-trideuteromethyl-pentyl)-23E-ene-26,27-hexafluoro-19-nor-cholecalciferol] | 0.1 | – | –
